# Source: patent US9951040B2, “1,3,5 -triazine based PI3K inhibitors as anticancer agents and a process for the preparation thereof” (Council of Scientific and Industrial Research, priority 2014, dated 2018)
# Read-outs that look alike come from different tables or passages of the source.
# Molecular target: PI3K alpha (Homo sapiens, UniProt P42336)
# Assay: PI3K-α assay (ADP-Glo enzyme inhibition)
# Type: biochemical
# Settings: at 500 nm
# Description: Compounds were evaluated for their ability to inhibit class I PI3-kinase enzyme alpha as given below. PI3K-α Assay: PI3K alpha (diluted in 12.5 mM Glycine-NaOH (pH 8.5), 50 mM KCl, 2.5 mM MgCl2, 1 mM DTT, 0.05% CHAPS) is assayed in total volume of 20 ul containing 12.5 mM glycine-NaOH (pH 8.5), 50 mM KCl, 2.5 mM MgCl2, 1 mM DTT, 0.05% CHAPS, 0.01 mM ATP and 0.05 mM diC8 PIP2. The enzyme is assayed for 80 min after which 20 ul of ADP-Glo reagent is added. After a further incubation of 40 min, 40 ul of Kinase Detection Buffer is added. The assays are incubated for 40 min and then read on PerkinElmer Envision for 1 sec/well.
# [1] = read-out: In vitro PI3K α % of inhibition
# [2] = read-out: inhibition against PI3K alpha
# Chain of PI3K alpha (P42336 whole entry, species assumed): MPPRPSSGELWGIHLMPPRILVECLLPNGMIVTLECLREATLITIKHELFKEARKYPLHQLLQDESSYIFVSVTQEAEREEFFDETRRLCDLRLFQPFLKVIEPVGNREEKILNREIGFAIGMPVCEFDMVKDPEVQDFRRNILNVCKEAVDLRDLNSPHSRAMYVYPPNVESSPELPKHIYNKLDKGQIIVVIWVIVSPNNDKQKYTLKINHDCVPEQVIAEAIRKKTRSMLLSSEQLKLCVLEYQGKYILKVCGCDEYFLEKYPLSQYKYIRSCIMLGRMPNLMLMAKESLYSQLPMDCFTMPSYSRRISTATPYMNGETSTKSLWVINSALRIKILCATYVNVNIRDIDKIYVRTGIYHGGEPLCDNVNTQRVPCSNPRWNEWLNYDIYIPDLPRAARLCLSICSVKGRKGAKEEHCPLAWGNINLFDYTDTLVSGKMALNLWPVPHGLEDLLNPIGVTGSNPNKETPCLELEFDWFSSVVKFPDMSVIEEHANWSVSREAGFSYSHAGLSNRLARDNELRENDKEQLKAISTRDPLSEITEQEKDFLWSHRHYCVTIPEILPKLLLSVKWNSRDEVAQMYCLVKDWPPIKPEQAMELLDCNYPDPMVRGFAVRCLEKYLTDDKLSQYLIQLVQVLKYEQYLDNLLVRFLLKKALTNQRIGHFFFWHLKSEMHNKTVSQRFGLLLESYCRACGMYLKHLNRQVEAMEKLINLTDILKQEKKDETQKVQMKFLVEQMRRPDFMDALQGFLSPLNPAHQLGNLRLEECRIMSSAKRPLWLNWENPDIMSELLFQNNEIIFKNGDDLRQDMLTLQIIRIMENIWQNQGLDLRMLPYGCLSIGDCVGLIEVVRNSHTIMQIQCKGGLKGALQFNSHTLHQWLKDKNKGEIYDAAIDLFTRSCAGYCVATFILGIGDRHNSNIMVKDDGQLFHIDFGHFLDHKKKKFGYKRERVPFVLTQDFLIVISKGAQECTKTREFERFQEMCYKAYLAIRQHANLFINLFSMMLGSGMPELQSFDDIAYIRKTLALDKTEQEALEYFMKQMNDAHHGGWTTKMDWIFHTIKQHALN
# Chain of PI3K alpha (P27986 whole entry partner, species assumed): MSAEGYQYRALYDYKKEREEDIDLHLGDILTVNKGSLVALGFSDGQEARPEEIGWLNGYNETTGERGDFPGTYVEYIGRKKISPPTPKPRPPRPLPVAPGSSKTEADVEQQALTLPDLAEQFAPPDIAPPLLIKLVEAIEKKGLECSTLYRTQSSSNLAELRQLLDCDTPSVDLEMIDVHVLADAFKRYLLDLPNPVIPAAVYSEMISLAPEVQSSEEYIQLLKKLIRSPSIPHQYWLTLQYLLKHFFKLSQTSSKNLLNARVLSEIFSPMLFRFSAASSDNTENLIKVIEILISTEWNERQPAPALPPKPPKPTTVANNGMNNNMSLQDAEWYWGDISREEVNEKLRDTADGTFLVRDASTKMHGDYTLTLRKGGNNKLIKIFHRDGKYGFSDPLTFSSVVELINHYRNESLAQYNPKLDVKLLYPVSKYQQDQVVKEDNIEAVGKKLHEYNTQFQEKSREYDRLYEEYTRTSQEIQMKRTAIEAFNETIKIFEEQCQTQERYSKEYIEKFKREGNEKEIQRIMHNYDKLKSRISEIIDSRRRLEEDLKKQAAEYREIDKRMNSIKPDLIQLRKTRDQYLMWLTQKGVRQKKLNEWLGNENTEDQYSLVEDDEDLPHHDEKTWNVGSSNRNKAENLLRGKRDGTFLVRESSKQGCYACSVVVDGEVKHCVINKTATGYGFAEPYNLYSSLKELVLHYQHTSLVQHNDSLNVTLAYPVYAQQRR
Structure (SMILES),inhibition at 0.5 µM [1] [%],inhibition at 0.5 µM [2] [%]
"FC(F)c1cc2ccccc2n1-c1nc(N2CCOCC2)nc(N2CCC(Nc3ccc(OC(F)(F)F)cc3)CC2)n1 [1B48, 1-(4-(2-(difluoromethyl)-1H-indol-1-yl)-6-morpholino-1,3,5-triazin-2-yl)-N-(4-(trifluoromethoxy)phenyl)piperidin-4-amine]",50 to 70,
"CN(c1ccccc1)c1nc(N2CCOCC2)nc(N2CCC(Oc3ccccc3F)CC2)n1 [1A2, 4-(4-(2-fluorophenoxy)piperidin-1-yl)-N-methyl-6-morpholino-N-phenyl-1,3,5-triazin-2-amine]",50 to 70,
"Fc1ccc(NC2CCN(c3nc(N4CCOCC4)nc(-n4c(C(F)F)nc5ccccc54)n3)CC2)cc1 [1B21, 1-(4-(2-(difluoromethyl)-1H-benzo[d]imidazol-1-yl)-6-morpholino-1,3,5-triazin-2-yl)-N-(4-fluorophenyl)piperidin-4-amine]",50 to 70,
"Cc1ccc(OC2CCN(c3nc(N4CCOCC4)nc(-n4cnc5cc(F)ccc54)n3)CC2)cc1 [1B13, 4-(4-(5-fluoro-1H-benzo[d]imidazol-1-yl)-6-(4-(p-tolyloxy)piperidin-1-yl)-1,3,5-triazin-2-yl)morpholine]",50 to 70,
"Fc1ccc(N(c2ccc(Cl)cc2)C2CCN(c3nc(N4CCOCC4)nc(-n4c(C(F)F)nc5ccccc54)n3)CC2)cc1 [1B44, N-(4-chlorophenyl)-1-(4-(2-(difluoromethyl)-1H-benzo[d]imidazol-1-yl)-6-morpholino-1,3,5-triazin-2-yl)-N-(4-fluorophenyl)piperidin-4-amine]",50 to 70,
"O=C(N(C(=O)C(F)(F)F)c1nc(N2CCOCC2)nc(N2CCC(Oc3ccc(F)cc3)CC2)n1)C(F)(F)F [1A13, 2,2,2-trifluoro-N-(4-(4-(4-fluorophenoxy)piperidin-1-yl)-6-morpholino-1,3,5-triazin-2-yl)-N-(2,2,2-trifluoroacetyl)acetamide]",50 to 70,
"Fc1ccccc1OC1CCN(c2nc(N3CCOCC3)nc(-n3cnc4ccccc43)n2)CC1 [1B18, 4-(4-(1H-benzo[d]imidazol-1-yl)-6-(4-(2-fluorophenoxy)piperidin-1-yl)-1,3,5-triazin-2-yl)morpholine]",> 70,> 70
"O=C(N(c1ccc(F)cc1)c1nc(N2CCOCC2)nc(N2CCC(Oc3ccc(F)cc3)CC2)n1)C(F)(F)F [1A6, 2,2,2-trifluoro-N-(4-(4-(4-fluorophenoxy)piperidin-1-yl)-6-morpholino-1,3,5-triazin-2-yl)-N-(4-fluorophenyl)acetamide]",> 70,> 70
"FC(F)c1nc2ccccc2n1-c1nc(N2CCOCC2)nc(N2CCC(Nc3ccccc3C(F)(F)F)CC2)n1 [1B29, 1-(4-(2-(difluoromethyl)-1H-benzo[d]imidazol-1-yl)-6-morpholino-1,3,5-triazin-2-yl)-N-(2-(trifluoromethyl)phenyl)piperidin-4-amine]",50 to 70,
"Fc1ccc2c(c1)ncn2-c1nc(N2CCOCC2)nc(N2CCC(Oc3ccc(C(F)(F)F)cc3)CC2)n1 [1B14, 4-(4-(5-fluoro-1H-benzo[d]imidazol-1-yl)-6-(4-(4-(trifluoromethyl)phenoxy)piperidin-1-yl)-1,3,5-triazin-2-yl)morpholine]",50 to 70,
"FC(F)c1cc2ccccc2n1-c1nc(N2CCOCC2)nc(N2CCC(Nc3ccc(C(F)(F)F)cc3)CC2)n1 [1B49, 1-(4-(2-(difluoromethyl)-1H-indol-1-yl)-6-morpholino-1,3,5-triazin-2-yl)-N-(4-(trifluoromethyl)phenyl)piperidin-4-amine]",> 70,> 70
"FC(F)(F)c1ccccc1OC1CCN(c2nc(N3CCOCC3)nc(N(c3ccccc3)c3ccccc3)n2)CC1 [1A19, 4-morpholino-N,N-diphenyl-6-(4-(2-(trifluoromethyl)phenoxy)piperidin-1-yl)-1,3,5-triazin-2-amine]",> 70,> 70
"FC(F)(F)c1ccccc1OC1CCN(c2nc(N3CCOCC3)nc(-n3cnc4ccccc43)n2)CC1 [1B20, 4-(4-(1H-benzo[d]imidazol-1-yl)-6-(4-(2-(trifluoromethyl)phenoxy)piperidin-1-yl)-1,3,5-triazin-2-yl)morpholine]",50 to 70,
"Fc1ccccc1NC1CCN(c2nc(N3CCOCC3)nc(-n3cnc4ccccc43)n2)CC1 [1B38, 1-(4-(1H-benzo[d]imidazol-1-yl)-6-morpholino-1,3,5-triazin-2-yl)-N-(2-fluorophenyl)piperidin-4-amine]",50 to 70,
"Cc1ccc(OC2CCN(c3nc(N4CCOCC4)nc(-n4c(C(F)F)nc5ccccc54)n3)CC2)cc1 [1B10, 4-(4-(2-(difluoromethyl)-1H-benzo[d]imidazol-1-yl)-6-(4-(p-tolyloxy)piperidin-1-yl)-1,3,5-triazin-2-yl)morpholine]",50 to 70,
"CN(c1ccccc1)c1nc(N2CCOCC2)nc(N2CCC(Oc3ccc(F)cc3)CC2)n1 [1A1, 4-(4-(4-fluorophenoxy)piperidin-1-yl)-N-methyl-6-morpholino-N-phenyl-1,3,5-triazin-2-amine]",50 to 70,
"FC(F)(F)Oc1ccc(OC2CCN(c3nc(N4CCOCC4)nc(-n4cnc5ccccc54)n3)CC2)cc1 [1B16, 4-(4-(1H-benzo[d]imidazol-1-yl)-6-(4-(4-(trifluoromethoxy)phenoxy)piperidin-1-yl)-1,3,5-triazin-2-yl)morpholine]",50 to 70,
"CN(C(=O)C(F)(F)F)c1nc(N2CCOCC2)nc(N2CCC(Oc3ccc(F)cc3)CC2)n1 [1A15, 2,2,2-trifluoro-N-(4-(4-(4-fluorophenoxy)piperidin-1-yl)-6-morpholino-1,3,5-triazin-2-yl)-N-methylacetamide]",> 70,> 70
"COc1ccc(NC2CCN(c3nc(N4CCOCC4)nc(-n4c(C(F)F)cc5ccccc54)n3)CC2)cc1 [1B47, 1-(4-(2-(difluoromethyl)-1H-indol-1-yl)-6-morpholino-1,3,5-triazin-2-yl)-N-(4-methoxyphenyl)piperidin-4-amine]",> 70,> 70
"O=C(N(c1ccccc1)c1nc(N2CCOCC2)nc(N2CCC(Oc3ccccc3)CC2)n1)C(F)(F)F [1A4, 2,2,2-trifluoro-N-(4-morpholino-6-(4-phenoxypiperidin-1-yl)-1,3,5-triazin-2-yl)-N-phenylacetamide]",50 to 70,

# Further lines, results first:
inhibition at 0.5 µM [1] [%],inhibition at 0.5 µM [2] [%],Structure (SMILES)
> 70,> 70,"Clc1ccccc1OC1CCN(c2nc(N3CCOCC3)nc(-n3cnc4ccccc43)n2)CC1 [1B19, 4-(4-(1H-benzo[d]imidazol-1-yl)-6-(4-(2-chlorophenoxy)piperidin-1yl)-1,3,5-triazin-2-yl)morpholine]"
50 to 70,,"Fc1ccc(NC2CCN(c3nc(N4CCOCC4)nc(-n4c(C(F)F)cc5ccccc54)n3)CC2)cc1 [1B46, 1-(4-(2-(difluoromethyl)-1H-indol-1-yl)-6-morpholino-1,3,5-triazin-2-yl)-N-(4-fluorophenyl)piperidin-4-amine]"
> 70,> 70,"Fc1ccc(N(c2ccc(C(F)(F)F)cc2)C2CCN(c3nc(N4CCOCC4)nc(-n4c(C(F)F)nc5ccccc54)n3)CC2)cc1 [1B43, 1-(4-(2-(difluoromethyl)-1H-benzo[d]imidazol-1-yl)-6-morpholino-1,3,5-triazin-2-yl)-N-(4-fluorophenyl)-N-(4-(trifluoromethyl)phenyl)piperidin-4-amine]"
50 to 70,,"Fc1ccc(OC2CCN(c3nc(N4CCOCC4)nc(-n4cnc5ccccc54)n3)CC2)cc1 [1B17, 4-(4-(1H-benzo[d]imidazol-1-yl)-6-(4-(4-fluorophenoxy)piperidin-1-yl)-1,3,5-triazin-2-yl)morpholine]"
> 70,> 70,"O=C(N(c1ccccc1)c1nc(N2CCOCC2)nc(N2CCC(Oc3ccccc3C(F)(F)F)CC2)n1)C(F)(F)F [1A10, 2,2,2-trifluoro-N-(4-morpholino-6-(4-(2-(trifluoromethyl)phenoxy)piperidin-1-yl)-1,3,5-triazin-2-yl)-N-phenylacetamide]"
50 to 70,,"CN(C)c1nc(N2CCOCC2)nc(N2CCC(Oc3ccc(F)cc3)CC2)n1 [1A17, 4-(4-(4-fluorophenoxy)piperidin-1-yl)-N,N-dimethyl-6-morpholino-1,3,5-triazin-2-amine]"
50 to 70,,"CN(C(=O)C(F)(F)F)c1nc(N2CCOCC2)nc(N2CCC(Oc3ccccc3)CC2)n1 [1A11, 2,2,2-trifluoro-N-methyl-N-(4-morpholino-6-(4-phenoxypiperidin-1-yl)-1,3,5-triazin-2-yl)acetamide]"
50 to 70,,"O=C(N(C(=O)C(F)(F)F)c1nc(N2CCOCC2)nc(N2CCC(Oc3ccccc3)CC2)n1)C(F)(F)F [1A12, 2,2,2-trifluoro-N-(4-morpholino-6-(4-phenoxypiperidin-1-yl)-1,3,5-triazin-2-yl)-N-(2,2,2-trifluoroacetyl)acetamide]"
50 to 70,,"FC(F)c1cc2ccccc2n1-c1nc(N2CCOCC2)nc(N2CCC(Nc3ccc(Cl)cc3)CC2)n1 [1B50, N-(4-chlorophenyl)-1-(4-(2-(difluoromethyl)-1H-indol-1-yl)-6-morpholino-1,3,5-triazin-2-yl)piperidin-4-amine]"
